Measurements as given in US11998017B2, “Bio-pesticide for Japanese beetles” (priority 2022, dated 2024).

System: Japanese beetle
Experiment: neurological response / paralysis of Japanese beetle after consuming or absorbing quisqualic acid
Type: in vivo, Popillia Japonica
Source text: The pesticide composition according to one or more embodiments described herein makes use of a phenomenon that is unique to the Japanese beetle. A primary active ingredient of the pesticide is the amino acid quisqualic acid, which elicits a unique neurological response specifically from the Japanese beetle. Quisqualic acid is naturally occurring in the Pelargonium and Quisqualic indica species of plants. As part of this disclosure, it was discovered that ingestion of the plants' essential oil is not required, but that the absorption of the plants' essential oil through contact by the Japanese beetle, can provoke a sufficient neurological response from the beetle, followed by 24-hour paralysis of the Japanese beetle. That is, the Japanese beetle need not consume the composition according to one or more embodiments herein. The composition is an effective pesticide through contact only by the Japanese beetle.
Japanese beetles that do land on the leaves, become saturated with the oil and absorb the paralysis-inducing quisqualic acid. Japanese beetles that do feed on the foliage may then also consume the quisqualic acid. […]

**Q.** With `N[C@@H](Cn1oc(=O)[nH]c1=O)C(=O)O` [quisqualic acid] as the molecule, how does the “duration of paralytic state” value (after consumption or absorption through contact) read?
**A.** 24 h

**Q.** And the “time until beetles fall into paralytic state” value (beetles that consume or absorb the quisqualic acid)?
**A.** 4 to 6 h
